Assay results from US8557971B2, “Chimeric viral envelopes” (Aarhus Universitet, priority 2006, dated 2013).

Key:
NIH 3T3 = test: Titer (transduction) of chimeric envelope constructs on NIH 3T3 cells; type: cell-based, mouse; details: qualitative; FIG. 12
Method: Transfections were done by calcium phosphate precipitation method, described by Graham and van der Eb (Graham and van der Eb, 1973) leaving the calcium precipitate on the cells for 24 hours. 293T cells were transfected using 8 μg of envelope expression plasmid, 2 μg gagpol expression plasmid (Morita et al., 2000) and 1 μg of an EGFP expressing plasmid. EGFP was included as a visual aid to determine the success of transfections. Medium on the transfected cells was renewed every day until it was used for transduction, usually between 48 and 72 hours after transfection, depending on the number of green fluorescing cells.
The day before transduction, medium was changed from fetal calf serum to newborn calf serum containing medium. Semi-packaging cells (Bahrami et al., 2003) were seeded at concentration of 10^4 cells/cm^2 24 hours before transduction.
Supernatant from transfected cells was filtered (0.22μ). The supernatant with 6 μg/mL polybrene was added to the target cells. 24 hours later, the infected cells were selected using medium described before containing 600 μg/mL G418 for 10 days.

CXCR4 = target: T1, CXCR4 (Homo sapiens, UniProt P61073); test: Flow cytometry of cell surface expression of CXCR4 on transduced D17 CD4 CXCR4 cells; type: cell-based; details: D17 CD4 CXCR4 cells transduced with envelope vector; FIG. 6
T1 construct: expressed in transfected cells; host or cells: D17 (dog) cells carrying CD4 and CXCR4
T1 sequence (P61073 whole entry): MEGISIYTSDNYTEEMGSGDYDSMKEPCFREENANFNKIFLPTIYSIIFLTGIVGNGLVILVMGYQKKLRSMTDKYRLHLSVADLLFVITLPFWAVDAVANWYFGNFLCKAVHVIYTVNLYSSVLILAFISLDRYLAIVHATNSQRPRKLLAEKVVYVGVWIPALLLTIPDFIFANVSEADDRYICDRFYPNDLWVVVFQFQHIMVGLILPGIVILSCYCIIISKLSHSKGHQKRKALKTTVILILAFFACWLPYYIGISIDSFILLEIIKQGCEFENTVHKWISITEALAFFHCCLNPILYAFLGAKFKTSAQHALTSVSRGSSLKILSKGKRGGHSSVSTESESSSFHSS
Method: Method: Flow cytometric analysis was carried out of Cell Surface Expression (CSE) of CXCR4 of cells transduced with vectors comprising the chimeric envelope polypeptide of the present invention. D17 CD4 CXCR4 cells were transduced with a vector expressing SL3-2 envelope with V3 loop inserted at positions indicated.
[…]; 315:51-61). The virus containing supernatant was subsequently used to transduce the D17 CXCR4CD4 cells.
Six chimeric variants have been tested (sequences used shown in SEQ ID NO: 3-8 and 42-47). In all panels the control D17 CD4 CXCR4 cells with […] envelope only (without the V3 insert) was tested against the same envelope comprising a V3 loop variant.
Protocol for flow cytometry: • Harvest cells (by nice trypzination) and spin down gently (1200 rpm, 5 min) • Keep cells on ice in all subsequent steps. • Wash once in wash buffer (2% Serum, 98% PBS—cold) ? […]

Substance: wild-type SL3-2: SL3-2 murine leukaemia virus envelope polypeptide (SEQ ID NO: 2 / 60) [reference compound]
- Infection of NIH mouse cells (NIH 3T3): can be infected
- Binding of anti CXCR-4 antibody / CXCR-4 cell surface expression level (CXCR4): does not affect the expression levels of CXCR-4
